How the values were obtained:
[1] = tested on: Raji, a human CD19 expressing target B cell line; test: CD19 CAR-T co-culture assay with Raji cells: CAR-T mediated target cell lysis; format: cell-based; settings: E:T ratios 5:1, 10:1, 20:1
Experimental: (§1) Human CD19 specific CAR-T effector cells from a donor were co-cultured with Raji, a human CD19 expressing target B cell line at different effector to target cell ratios of 5:1, 10:1, and 20:1 in the presence of C-2250. Co-culture was performed for 6 hours or 24 hours at 37° C., 5% CO2 prior to harvesting cells for CAR-T mediated target cell lysis or tissue culture supernatant for cytokine analysis. C-2250 was used at 500, 1000, and 1500 μM concentrations and was allowed to pre-incubate with CAR-T cells prior to addition of tumor target cells.
FIGS. 2A-2C show the results of CD19 CAR-T co-culture assay with CD-19 tumor cells (Raji) at 6 hours, CAR-T mediated tumor target cell in the present of increasing concentrations of C-2250 are shown (E:T ratios of 5:1, 10:1, and 20:1 are shown in FIGS. 2A, 2B, and 2C, respectively). FIGS. 3A-3C show the results of CD19 CAR-T co-culture assay with CD-19 tumor cells (Raji) at 24 hours, CAR-T mediated tumor target cell in the present of increasing concentrations of C-2250 are shown (E:T ratios of 5:1, 10:1, and 20:1 are shown in FIGS. 3A, 3B, and 3C, respectively).

[2] = tested on: Ramos cells (a human CD19 expressing B cell line); test: PBMC/Ramos co-culture with BLINCYTO: target cell cytotoxicity; format: cell-based; settings: 24 hours
Experimental: (§2) Inhibition of cytokine release by C-2250 in the presence of a bispecific CD19 T cell engager was assessed. Human PBMCs from ten donors were co-cultured with Ramos cells (a human CD19 expressing B cell line) in the presence of blinatumomab (BLINCYTO®), a T cell bispecific therapeutic, and C-2250 was added.
(§3) Co-culture was performed for 24 hours at 37° C., 5% CO2, prior to harvesting cells or tissue culture supernatant for analysis. C-2250 was used at 500, 1000, and 1500 μM concentrations and was allowed to pre-incubate with T cells prior to addition of BLINCYTO®.

[3] = tested on: primary human peripheral blood mononuclear cells (PBMCs); test: LPS stimulated human PBMC cytokine release; format: cell-based; settings: LPS 1 ng/ml, 48 hours; C-2250 500, 1000, 1500 μM; five donors
Experimental: The ability of C-2250 to suppress in vitro cytokine release from primary human peripheral blood mononuclear cells (PBMCs) was assessed. Lipopolysaccharide (LPS) inhibition by C-2250 was determined. PBMCs from five individual, normal healthy human volunteers were incubated with C-2250, followed by LPS stimulation for 48 hours. Detection of three different cytokines was performed using an antibody capture bead-based kit and flow cytometric analysis.
Cryopreserved PBMCs from five healthy human donors (IQ Biosciences, Catalog #I QB-PBMC103) were thawed and cultured in RPMI 1640 medium (Gibco RPMI-1640 Medium (ATCC, Catalog #30-2001) supplemented with 10% FCS, 2 mM L-glutamine, 100 IU/mL penicillin, 100 μg/mL streptomycin, 1 mM sodium pyruvate (all from ThermoFisher) with viability >85% as determined automated cell counter (Countess II FL Automated Cell Counter; ThermoFisher; Catalog #AMQAF1000) prior to experiments. For C-2250, a 73 mM stock was prepared in sterile Lactated Ringer's Solution less than two hours prior to the start of the assay by adding 100 mg C-2250 into 10 mL Lactated Ringer's Solution. Prior to use in the assay, the pH of the solution was adjusted to 7.3. 100 μl of PBMCs at 1.0×10^7 cells/mL were washed and re-suspended in tissue culture medium containing a fixed concentration (1 ng/ml) of LPS from E. coli, serotype 0111:B4. LPS stimulation was performed for 48 hours at 37° C., 5% CO2 prior to harvesting tissue culture supernatant for cytokine analysis. C-2250 was used at 500, 1000, and 1500 μM concentrations.
Each symbol represents the mean value of triplicate analysis of a single donor. Each bar per treatment group represents the mean value of all donors where the triplicate value of each donor is averaged.

[4] = Solubility in water / isotonicity; format: physicochemical
[5] = tested on: Human PBMCs; test: PBMC/Ramos co-culture with BLINCYTO: cytokine release; format: cell-based
Experimental: as §2, §3

[6] = tested on: Human CD19 specific CAR-T effector cells; test: CD19 CAR-T co-culture assay with Raji cells: cytokine release; format: cell-based
Experimental: as §1

[7] = tested on: CAR T cell-induced severe or life-threatening CRS; settings: two cohorts; adults and pediatric patients 2 years and older; cited from earlier work
[8] = C-2250 500, 1000, 1500 μM with BLINCYTO 100 ng/ml, 24 hours
[9] = E:T ratios 5:1, 10:1, 20:1, C-2250 500, 1000, 1500 μM

Compound	CD19 CAR-T mediated CD19+ tumor target cell cytotoxicity ([1]; 6 hours)	CD19 CAR-T mediated CD19+ tumor target cell cytotoxicity ([1]; 24 hours)	BLINCYTO mediated CD19+ tumor target cell cytotoxicity ([2]; C-2250 500, 1000, 1500 μM with BLINCYTO 100 ng/ml)	tumor target cytotoxicity in the absence of BLINCYTO ([2]; no BLINCYTO, PBMC/Ramos co-culture)	inhibition of IL-1β cytokine release [3]	inhibition of IL-6 cytokine release [3]	inhibition of TNF-α cytokine release [3]	concentration of isotonic solution [4]	solubility in water ([4]; no PVP necessary)	BLINCYTO T-cell mediated IFN-γ cytokine release [5, 8]	BLINCYTO T-cell mediated IL-1β cytokine release [5, 8]	BLINCYTO T-cell mediated IL-2 cytokine release [5, 8]	BLINCYTO T-cell mediated IL-6 cytokine release [5, 8]	BLINCYTO T-cell mediated TNF-α cytokine release [5, 8]	release of all of the tested cytokines ([5]; with BLINCYTO, summary statement)	cytokine release (including IL-1β, IL-6, TNF-α, and IFN-γ cytokines) ([6]; CAR-T/Raji co-culture, summary statement)	CD19 CAR-T cell mediated IFN-γ cytokine release [6, 9]	CD19 CAR-T cell mediated IL-2 cytokine release [6, 9]	CD19 CAR-T cell mediated TNF-α cytokine release [6, 9]	response rates [7]
O=S1(=O)CCOCN1 [C-2250, Tetrahydro1,4,5-oxathiazin-4-dioxide]	does not abrograte	does not abrograte	did not reduce	increased	dose-dependent inhibition	dose-dependent inhibition	dose-dependent inhibition	3.2%	very soluble	reduced	reduced	reduced	reduced	reduced	reduced	shuts down	reduces	reduces	reduces	
tocilizumab: monoclonal antibody blocking the interleukin-6 (IL-6) receptor																				53%-69%

Source: US12514847B2, “Oxathiazin_dioxide for treating, preventing, inhibiting or reducing cytokine release” (Geistlich Pharma AG, priority 2019, dated 2026)
